SMILES strings stand for the structures.

Consider one compound from US7544373B2, “Minocycline oral dosage forms for the treatment of acne” (Medicis Pharmaceutical Corporation, priority 2007, dated 2009).

The series can be described thus: Repeat-dose primate toxicology studies. It is filed as in vivo.

For `CN(C)c1ccc(O)c2c1C[C@H]1C[C@H]3[C@H](N(C)C)C(O)=C(C(N)=O)C(=O)[C@@]3(O)C(O)=C1C2=O` [minocycline], the “lowest exposure which yields adverse effects” value (4 weeks) was roughly 15 µg/mL and the “lowest exposure which yields adverse effects” value (13 weeks) is roughly 7 µg/mL.
